{"source": "paper PMC3399817", "about": "(PLoS ONE, 2012)", "experiment_in_all_cases": "KINOMEscan", "format_in_all_cases": "binding", "key": {"TAOK3": {"target": "T1, TAOK3 (Homo sapiens, UniProt Q9H2K8)", "T1 construct": "purchased Ambit KINOMEscan (DiscoverX)", "settings": "TAOK3, 1 uM", "summary_of_the_method": "(§1)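 Binding assay, no enzymatic read-out; all compounds tested at 1 μM to find kinases whose substrate binding they inhibit.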"}, "AKT3": {"target": "T2, AKT3 (Homo sapiens, UniProt Q9Y243)", "T2 construct": "purchased Ambit KINOMEscan (DiscoverX)", "settings": "AKT3, 1 uM", "summary_of_the_method": "as §1"}, "PAK3": {"target": "T3, PAK3 (Homo sapiens, UniProt O75914)", "T3 construct": "purchased Ambit KINOMEscan (DiscoverX)", "settings": "PAK3, 1 uM", "summary_of_the_method": "as §1"}, "PIK3CG": {"target": "T4, PIK3CG (Homo sapiens, UniProt P48736)", "T4 construct": "purchased Ambit KINOMEscan (DiscoverX)", "settings": "1 uM", "summary_of_the_method": "as §1"}, "LATS1": {"target": "T5, LATS1 (Homo sapiens, UniProt O95835)", "T5 construct": "purchased Ambit KINOMEscan (DiscoverX)", "settings": "LATS1, 1 uM", "summary_of_the_method": "as §1"}, "BRAF(V600E)": {"target": "T6, BRAF(V600E) (Homo sapiens, UniProt P15056, V600E)", "T6 construct": "purchased Ambit KINOMEscan (DiscoverX)", "T6 sequence (P15056 whole entry V600E)": "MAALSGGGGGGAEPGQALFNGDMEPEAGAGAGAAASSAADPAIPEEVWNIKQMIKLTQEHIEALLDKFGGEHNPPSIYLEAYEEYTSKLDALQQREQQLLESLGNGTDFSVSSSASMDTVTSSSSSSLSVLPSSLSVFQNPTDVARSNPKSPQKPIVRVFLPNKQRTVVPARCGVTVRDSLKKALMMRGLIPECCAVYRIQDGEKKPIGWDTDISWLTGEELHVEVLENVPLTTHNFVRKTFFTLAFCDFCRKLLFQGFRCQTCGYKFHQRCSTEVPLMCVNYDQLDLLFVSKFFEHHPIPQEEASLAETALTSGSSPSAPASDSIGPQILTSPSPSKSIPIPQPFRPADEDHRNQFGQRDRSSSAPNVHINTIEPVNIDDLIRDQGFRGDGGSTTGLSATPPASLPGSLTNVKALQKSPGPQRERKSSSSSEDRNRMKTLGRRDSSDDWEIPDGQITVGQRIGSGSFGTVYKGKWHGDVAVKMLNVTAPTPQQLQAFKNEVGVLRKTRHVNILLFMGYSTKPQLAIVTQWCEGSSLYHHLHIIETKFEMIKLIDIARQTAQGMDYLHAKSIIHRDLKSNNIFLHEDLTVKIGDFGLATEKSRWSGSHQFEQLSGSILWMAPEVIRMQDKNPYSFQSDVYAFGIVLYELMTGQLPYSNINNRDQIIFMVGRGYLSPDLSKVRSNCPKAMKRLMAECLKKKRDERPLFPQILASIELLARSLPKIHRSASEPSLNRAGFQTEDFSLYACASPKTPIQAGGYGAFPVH", "settings": "1 uM", "summary_of_the_method": "as §1"}, "MAP4K3": {"target": "T7, MAP4K3 (Homo sapiens, UniProt Q8IVH8)", "T7 construct": "purchased Ambit KINOMEscan (DiscoverX)", "settings": "MAP4K3, 1 uM", "summary_of_the_method": "as §1"}, "EPHB1": {"target": "T8, EPHB1 (Homo sapiens, UniProt P54762)", "T8 construct": "purchased Ambit KINOMEscan (DiscoverX)", "T8 sequence (P54762 18-984)": "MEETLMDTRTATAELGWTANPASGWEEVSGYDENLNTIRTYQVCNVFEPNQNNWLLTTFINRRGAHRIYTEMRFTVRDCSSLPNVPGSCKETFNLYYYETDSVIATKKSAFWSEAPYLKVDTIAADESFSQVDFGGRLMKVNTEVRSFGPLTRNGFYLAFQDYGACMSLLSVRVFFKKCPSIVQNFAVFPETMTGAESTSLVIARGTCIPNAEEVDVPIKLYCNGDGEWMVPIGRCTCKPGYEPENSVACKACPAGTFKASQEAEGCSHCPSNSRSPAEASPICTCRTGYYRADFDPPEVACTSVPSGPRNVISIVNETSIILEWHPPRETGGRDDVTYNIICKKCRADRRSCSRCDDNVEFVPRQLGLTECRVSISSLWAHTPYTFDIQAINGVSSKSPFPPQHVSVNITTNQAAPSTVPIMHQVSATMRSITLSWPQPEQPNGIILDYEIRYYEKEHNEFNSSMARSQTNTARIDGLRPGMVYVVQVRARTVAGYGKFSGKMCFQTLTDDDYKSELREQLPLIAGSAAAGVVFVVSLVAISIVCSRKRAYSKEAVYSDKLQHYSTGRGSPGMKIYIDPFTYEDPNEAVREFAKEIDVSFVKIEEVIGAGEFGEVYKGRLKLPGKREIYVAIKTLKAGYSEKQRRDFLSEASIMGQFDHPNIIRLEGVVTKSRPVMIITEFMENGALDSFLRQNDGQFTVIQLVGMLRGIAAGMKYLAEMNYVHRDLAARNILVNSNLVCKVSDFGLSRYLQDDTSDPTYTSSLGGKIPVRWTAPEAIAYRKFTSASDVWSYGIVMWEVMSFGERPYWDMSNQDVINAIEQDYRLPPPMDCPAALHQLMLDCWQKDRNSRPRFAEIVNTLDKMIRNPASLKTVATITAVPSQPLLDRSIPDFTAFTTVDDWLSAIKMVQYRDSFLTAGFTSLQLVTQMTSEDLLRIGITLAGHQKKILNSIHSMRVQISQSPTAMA", "settings": "EPHB1, 1 uM", "summary_of_the_method": "as §1"}, "PRKR": {"target": "T9, PRKR (Homo sapiens, UniProt P19525)", "T9 construct": "purchased Ambit KINOMEscan (DiscoverX)", "settings": "1 uM", "summary_of_the_method": "as §1"}, "[1]": {"target": "T10, TYK2(JH2domain-pseudokinase) (Homo sapiens, UniProt P29597)", "T10 construct": "TYK2(JH2domain-pseudokinase); purchased Ambit KINOMEscan (DiscoverX)", "T10 sequence (P29597 556-888 limits assumed)": "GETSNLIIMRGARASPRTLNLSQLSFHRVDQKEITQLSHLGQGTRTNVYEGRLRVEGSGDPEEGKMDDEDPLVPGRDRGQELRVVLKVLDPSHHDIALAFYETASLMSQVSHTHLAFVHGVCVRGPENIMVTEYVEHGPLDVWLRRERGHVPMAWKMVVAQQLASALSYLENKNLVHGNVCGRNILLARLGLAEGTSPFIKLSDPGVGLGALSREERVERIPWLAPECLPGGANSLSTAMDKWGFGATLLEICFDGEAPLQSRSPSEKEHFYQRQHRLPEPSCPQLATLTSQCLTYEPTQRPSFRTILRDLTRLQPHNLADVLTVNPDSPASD", "settings": "1 uM", "summary_of_the_method": "as §1"}, "SIK2": {"target": "T11, SIK2 (Homo sapiens, UniProt Q9H0K1)", "T11 construct": "purchased Ambit KINOMEscan (DiscoverX)", "settings": "SIK2, 1 uM", "summary_of_the_method": "as §1"}, "TGFBR2": {"target": "T12, TGFBR2 (Homo sapiens, UniProt P37173)", "T12 construct": "purchased Ambit KINOMEscan (DiscoverX)", "T12 sequence (P37173 23-567)": "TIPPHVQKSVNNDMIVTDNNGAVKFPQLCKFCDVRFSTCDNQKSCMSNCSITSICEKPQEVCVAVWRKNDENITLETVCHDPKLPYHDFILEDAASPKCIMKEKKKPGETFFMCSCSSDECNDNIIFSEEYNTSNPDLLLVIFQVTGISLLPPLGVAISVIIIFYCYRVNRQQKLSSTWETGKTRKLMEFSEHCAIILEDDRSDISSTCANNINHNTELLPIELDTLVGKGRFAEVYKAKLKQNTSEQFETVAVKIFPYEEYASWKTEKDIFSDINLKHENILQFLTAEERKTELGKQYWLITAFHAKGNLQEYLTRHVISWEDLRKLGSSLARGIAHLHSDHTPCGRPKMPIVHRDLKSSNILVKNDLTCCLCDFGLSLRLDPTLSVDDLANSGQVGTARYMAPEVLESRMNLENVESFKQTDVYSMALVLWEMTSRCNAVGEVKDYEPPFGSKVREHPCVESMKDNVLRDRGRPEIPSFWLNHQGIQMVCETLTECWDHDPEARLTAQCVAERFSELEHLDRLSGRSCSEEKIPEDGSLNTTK", "settings": "TGFBR2, 1 uM", "summary_of_the_method": "as §1"}, "MKNK2": {"target": "T13, MKNK2 (Homo sapiens, UniProt Q9HBH9)", "T13 construct": "purchased Ambit KINOMEscan (DiscoverX)", "settings": "MKNK2, 1 uM", "summary_of_the_method": "as §1"}, "TNIK": {"target": "T14, TNIK (Homo sapiens, UniProt Q9UKE5)", "T14 construct": "purchased Ambit KINOMEscan (DiscoverX)", "settings": "1 uM", "summary_of_the_method": "as §1"}, "KIT(D816V)": {"target": "T15, KIT(D816V) (Homo sapiens, UniProt P10721, D816V)", "T15 construct": "purchased Ambit KINOMEscan (DiscoverX)", "T15 sequence (P10721 26-976 D816V)": "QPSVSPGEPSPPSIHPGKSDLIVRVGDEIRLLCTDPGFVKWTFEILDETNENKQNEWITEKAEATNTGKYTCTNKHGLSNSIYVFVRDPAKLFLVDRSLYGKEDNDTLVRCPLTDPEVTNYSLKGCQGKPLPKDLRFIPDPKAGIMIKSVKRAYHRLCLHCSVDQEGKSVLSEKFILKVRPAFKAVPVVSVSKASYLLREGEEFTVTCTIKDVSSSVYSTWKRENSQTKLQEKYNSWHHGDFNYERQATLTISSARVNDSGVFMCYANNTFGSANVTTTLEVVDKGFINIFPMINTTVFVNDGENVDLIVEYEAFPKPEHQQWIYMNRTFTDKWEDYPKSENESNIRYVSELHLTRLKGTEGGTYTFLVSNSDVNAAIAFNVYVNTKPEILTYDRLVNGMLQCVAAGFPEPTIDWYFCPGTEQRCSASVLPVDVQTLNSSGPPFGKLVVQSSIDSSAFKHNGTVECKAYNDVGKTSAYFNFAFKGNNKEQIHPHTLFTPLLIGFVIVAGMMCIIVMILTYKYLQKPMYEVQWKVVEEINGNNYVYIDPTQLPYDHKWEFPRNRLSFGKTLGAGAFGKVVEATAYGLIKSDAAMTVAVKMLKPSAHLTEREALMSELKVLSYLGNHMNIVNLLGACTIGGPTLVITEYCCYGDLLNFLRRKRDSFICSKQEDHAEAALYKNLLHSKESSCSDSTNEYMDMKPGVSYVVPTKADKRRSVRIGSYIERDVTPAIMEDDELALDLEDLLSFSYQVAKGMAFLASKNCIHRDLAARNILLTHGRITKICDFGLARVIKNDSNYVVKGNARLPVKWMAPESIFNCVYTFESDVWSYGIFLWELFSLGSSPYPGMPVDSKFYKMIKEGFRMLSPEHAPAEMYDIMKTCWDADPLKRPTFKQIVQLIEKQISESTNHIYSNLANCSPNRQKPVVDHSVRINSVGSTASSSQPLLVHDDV", "settings": "1 uM", "summary_of_the_method": "as §1"}, "PKMYT1": {"target": "T16, PKMYT1 (Homo sapiens, UniProt Q99640)", "T16 construct": "purchased Ambit KINOMEscan (DiscoverX)", "settings": "PKMYT1, 1 uM", "summary_of_the_method": "as §1"}, "IKK-beta": {"target": "T17, IKK-beta (Homo sapiens, UniProt O14920)", "T17 construct": "purchased Ambit KINOMEscan (DiscoverX)", "settings": "1 uM", "summary_of_the_method": "as §1"}, "MARK4": {"target": "T18, MARK4 (Homo sapiens, UniProt Q96L34)", "T18 construct": "purchased Ambit KINOMEscan (DiscoverX)", "settings": "MARK4, 1 uM", "summary_of_the_method": "as §1"}, "p38-alpha": {"target": "T19, p38-alpha (Homo sapiens, UniProt Q16539)", "T19 construct": "purchased Ambit KINOMEscan (DiscoverX)", "settings": "1 uM", "summary_of_the_method": "as §1"}, "PFTAIRE2": {"target": "T20, PFTAIRE2 (Homo sapiens, UniProt Q96Q40)", "T20 construct": "purchased Ambit KINOMEscan (DiscoverX)", "settings": "PFTAIRE2, 1 uM", "summary_of_the_method": "as §1"}, "ROCK1": {"target": "T21, ROCK1 (Homo sapiens, UniProt Q13464)", "T21 construct": "purchased Ambit KINOMEscan (DiscoverX)", "settings": "ROCK1, 1 uM", "summary_of_the_method": "as §1"}, "EGFR(G719C)": {"target": "T22, EGFR(G719C) (Homo sapiens, UniProt P00533, G719C)", "T22 construct": "purchased Ambit KINOMEscan (DiscoverX)", "settings": "1 uM", "summary_of_the_method": "as §1"}, "PAK6": {"target": "T23, PAK6 (Homo sapiens, UniProt Q9NQU5)", "T23 construct": "purchased Ambit KINOMEscan (DiscoverX)", "settings": "PAK6, 1 uM", "summary_of_the_method": "as §1"}, "EPHA6": {"target": "T24, EPHA6 (Homo sapiens, UniProt Q9UF33)", "T24 construct": "purchased Ambit KINOMEscan (DiscoverX)", "settings": "EPHA6, 1 uM", "summary_of_the_method": "as §1"}, "GSK3B": {"target": "T25, GSK3B (Homo sapiens, UniProt P49841)", "T25 construct": "purchased Ambit KINOMEscan (DiscoverX)", "settings": "GSK3B, 1 uM", "summary_of_the_method": "as §1"}, "FLT4": {"target": "T26, FLT4 (Homo sapiens, UniProt P35916)", "T26 construct": "purchased Ambit KINOMEscan (DiscoverX)", "settings": "FLT4, 1 uM", "summary_of_the_method": "as §1"}, "WEE2": {"target": "T27, WEE2 (Homo sapiens, UniProt P0C1S8)", "T27 construct": "purchased Ambit KINOMEscan (DiscoverX)", "settings": "WEE2, 1 uM", "summary_of_the_method": "as §1"}, "BTK": {"target": "T28, BTK (Homo sapiens, UniProt Q06187)", "T28 construct": "purchased Ambit KINOMEscan (DiscoverX)", "settings": "1 uM", "summary_of_the_method": "as §1"}, "ERK2": {"target": "T29, ERK2 (Homo sapiens, UniProt P28482)", "T29 construct": "purchased Ambit KINOMEscan (DiscoverX)", "settings": "ERK2, 1 uM", "summary_of_the_method": "as §1"}, "BMPR2": {"target": "T30, BMPR2 (Homo sapiens, UniProt Q13873)", "T30 construct": "purchased Ambit KINOMEscan (DiscoverX)", "settings": "BMPR2, 1 uM", "summary_of_the_method": "as §1"}, "[2]": {"target": "T31, JAK1(JH2domain-pseudokinase) (Homo sapiens, UniProt P23458)", "T31 construct": "JAK1(JH2domain-pseudokinase); purchased Ambit KINOMEscan (DiscoverX)", "T31 sequence (P23458 583-855 limits assumed)": "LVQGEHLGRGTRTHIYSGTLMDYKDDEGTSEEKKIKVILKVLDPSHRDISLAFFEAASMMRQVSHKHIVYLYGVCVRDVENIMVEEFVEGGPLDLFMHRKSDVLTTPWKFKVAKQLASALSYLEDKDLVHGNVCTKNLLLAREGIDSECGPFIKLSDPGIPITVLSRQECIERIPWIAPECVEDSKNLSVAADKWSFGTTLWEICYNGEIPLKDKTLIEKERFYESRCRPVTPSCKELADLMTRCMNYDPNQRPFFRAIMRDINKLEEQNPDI", "settings": "1 uM", "summary_of_the_method": "as §1"}, "MYLK2": {"target": "T32, MYLK2 (Homo sapiens, UniProt Q9H1R3)", "T32 construct": "purchased Ambit KINOMEscan (DiscoverX)", "settings": "MYLK2, 1 uM", "summary_of_the_method": "as §1"}, "TGFBR1": {"target": "T33, TGFBR1 (Homo sapiens, UniProt P36897)", "T33 construct": "purchased Ambit KINOMEscan (DiscoverX)", "T33 sequence (P36897 34-503)": "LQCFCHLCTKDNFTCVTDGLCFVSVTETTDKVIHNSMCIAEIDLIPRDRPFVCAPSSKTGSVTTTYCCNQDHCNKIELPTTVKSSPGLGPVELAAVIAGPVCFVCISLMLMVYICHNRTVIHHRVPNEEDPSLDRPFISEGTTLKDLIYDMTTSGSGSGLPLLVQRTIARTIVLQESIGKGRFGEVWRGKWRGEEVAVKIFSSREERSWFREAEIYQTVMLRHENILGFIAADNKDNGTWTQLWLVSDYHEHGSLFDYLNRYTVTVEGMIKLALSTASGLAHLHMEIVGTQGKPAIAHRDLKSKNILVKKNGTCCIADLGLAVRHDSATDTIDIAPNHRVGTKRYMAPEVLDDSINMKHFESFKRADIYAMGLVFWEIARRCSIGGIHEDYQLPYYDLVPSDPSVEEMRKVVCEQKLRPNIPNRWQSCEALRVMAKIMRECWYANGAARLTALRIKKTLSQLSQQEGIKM", "settings": "TGFBR1, 1 uM", "summary_of_the_method": "as §1"}, "OSR1": {"target": "T34, OSR1 (Homo sapiens, UniProt O95747)", "T34 construct": "purchased Ambit KINOMEscan (DiscoverX)", "settings": "OSR1, 1 uM", "summary_of_the_method": "as §1"}, "[3]": {"target": "T35, ABL1(Q252H)-nonphosphorylated (Homo sapiens, UniProt P00519, Q252H)", "T35 construct": "purchased Ambit KINOMEscan (DiscoverX)", "settings": "1 uM", "summary_of_the_method": "as §1"}, "PDPK1": {"target": "T36, PDPK1 (Homo sapiens, UniProt O15530)", "T36 construct": "purchased Ambit KINOMEscan (DiscoverX)", "settings": "PDPK1, 1 uM", "summary_of_the_method": "as §1"}, "BRK": {"target": "T37, BRK (Homo sapiens, UniProt Q13882)", "T37 construct": "purchased Ambit KINOMEscan (DiscoverX)", "settings": "1 uM", "summary_of_the_method": "as §1"}, "ABL2": {"target": "T38, ABL2 (Homo sapiens, UniProt P42684)", "T38 construct": "purchased Ambit KINOMEscan (DiscoverX)", "settings": "ABL2, 1 uM", "summary_of_the_method": "as §1"}}, "data": [{"smiles": "COc1ccccc1Nc1nc(-c2ccc(OC)c(OC)c2)cc2nccn12", "note": "[BAY derivative 6]", "values": [{"measurement": "% binding compared to no inhibitor control", "setting": "TAOK3", "result": 100, "unit": "%"}, {"measurement": "% binding compared to no inhibitor control", "setting": "AKT3", "result": 100, "unit": "%"}, {"measurement": "% binding compared to no inhibitor control", "setting": "PAK3", "result": 100, "unit": "%"}, {"measurement": "% binding compared to no inhibitor control", "setting": "PIK3CG", "result": 100, "unit": "%"}, {"measurement": "% binding compared to no inhibitor control", "setting": "LATS1", "result": 100, "unit": "%"}, {"measurement": "% binding compared to no inhibitor control", "setting": "BRAF(V600E)", "result": 100, "unit": "%"}, {"measurement": "% binding compared to no inhibitor control", "setting": "MAP4K3", "result": 100, "unit": "%"}, {"measurement": "% binding compared to no inhibitor control", "setting": "EPHB1", "result": 100, "unit": "%"}, {"measurement": "% binding compared to no inhibitor control", "setting": "PRKR", "result": 100, "unit": "%"}, {"measurement": "% binding compared to no inhibitor control", "setting": "[1]", "result": 37, "unit": "%"}, {"measurement": "% binding compared to no inhibitor control", "setting": "SIK2", "result": 64, "unit": "%"}, {"measurement": "% binding compared to no inhibitor control", "setting": "TGFBR2", "result": 100, "unit": "%"}, {"measurement": "% binding compared to no inhibitor control", "setting": "MKNK2", "result": 100, "unit": "%"}, {"measurement": "% binding compared to no inhibitor control", "setting": "TNIK", "result": 98, "unit": "%"}, {"measurement": "% binding compared to no inhibitor control", "setting": "KIT(D816V)", "result": 22, "unit": "%"}, {"measurement": "% binding compared to no inhibitor control", "setting": "PKMYT1", "result": 95, "unit": "%"}, {"measurement": "% binding compared to no inhibitor control", "setting": "IKK-beta", "result": 89, "unit": "%"}, {"measurement": "% binding compared to no inhibitor control", "setting": "MARK4", "result": 75, "unit": "%"}, {"measurement": "% binding compared to no inhibitor control", "setting": "p38-alpha", "result": 95, "unit": "%"}, {"measurement": "% binding compared to no inhibitor control", "setting": "PFTAIRE2", "result": 100, "unit": "%"}, {"measurement": "% binding compared to no inhibitor control", "setting": "ROCK1", "result": 81, "unit": "%"}, {"measurement": "% binding compared to no inhibitor control", "setting": "EGFR(G719C)", "result": 100, "unit": "%"}, {"measurement": "% binding compared to no inhibitor control", "setting": "PAK6", "result": 99, "unit": "%"}, {"measurement": "% binding compared to no inhibitor control", "setting": "EPHA6", "result": 100, "unit": "%"}, {"measurement": "% binding compared to no inhibitor control", "setting": "GSK3B", "result": 100, "unit": "%"}, {"measurement": "% binding compared to no inhibitor control", "setting": "FLT4", "result": 86, "unit": "%"}, {"measurement": "% binding compared to no inhibitor control", "setting": "WEE2", "result": 100, "unit": "%"}, {"measurement": "% binding compared to no inhibitor control", "setting": "BTK", "result": 60, "unit": "%"}, {"measurement": "% binding compared to no inhibitor control", "setting": "ERK2", "result": 70, "unit": "%"}, {"measurement": "% binding compared to no inhibitor control", "setting": "BMPR2", "result": 87, "unit": "%"}, {"measurement": "% binding compared to no inhibitor control", "setting": "[2]", "result": 1.2, "unit": "%"}, {"measurement": "% binding compared to no inhibitor control", "setting": "MYLK2", "result": 89, "unit": "%"}, {"measurement": "% binding compared to no inhibitor control", "setting": "TGFBR1", "result": 99, "unit": "%"}, {"measurement": "% binding compared to no inhibitor control", "setting": "OSR1", "result": 100, "unit": "%"}, {"measurement": "% binding compared to no inhibitor control", "setting": "[3]", "result": 58, "unit": "%"}, {"measurement": "% binding compared to no inhibitor control", "setting": "PDPK1", "result": 100, "unit": "%"}, {"measurement": "% binding compared to no inhibitor control", "setting": "BRK", "result": 59, "unit": "%"}, {"measurement": "% binding compared to no inhibitor control", "setting": "ABL2", "result": 93, "unit": "%"}]}]}
